System: granulomatous rosacea
Assay: Case reports: treatment of patients with granulomatous rosacea
Type: in vivo, human
Details: for clinical response of granulomatous rosacea at follow-up: two months later
Protocol: A patient presented with severe inflammatory diffuse facial granulomatous rosacea. The condition had been present for 6 years.
They were started on oral azithromycin 500 mg daily dose together with an estrogenic hormone, norgestimate/ethinyl estradiol (ORTHO TRI-CYCLEN®, Ortho-McNeil Pharmaceutical, Raritan, N.J.). […] Treatment was continued with a follow-up examination expected in another 6 to 8 weeks.
A patient presented with complaints of a “facial rash”. […] They were started on oral cephalexin. […] Treatment with dicloxicillin was initiated.
Oral azithromycin at a dosage of 500 mg daily was started, together with daily topical application of a sodium sulfacetamide 10% with sulfur 5% cream and a metronidazole cream.
A person presented with a facial rash.
Treatment was initiated with a variety of topical medications, including metronidazole gel, Elidel® (pimecrolimus, Novartis Pharmaceuticals Corp., New York, N.Y.), 2.4% hydrocortisone, and desonide cream.
The next therapy tried was oral doxycycline 100 mg twice daily. […] The patient was then started on Accutane® (Hoffman-LaRoche Inc., Nutley, N.J.) at an initial dosage of 20 mg per day, which was subsequently raised to 40 mg per day and then to 60 mg per day.
Treatment was subsequently initiated with azithromycin as the sole therapy, administered orally at a dosage of 250 mg daily for three weeks.

SMILES: CC[C@H]1OC(=O)[C@H](C)[C@@H](O[C@H]2C[C@@](C)(OC)[C@@H](O)[C@H](C)O2)[C@H](C)[C@@H](O[C@@H]2O[C@H](C)C[C@H](N(C)C)[C@H]2O)[C@](C)(O)C[C@@H](C)CN(C)[C@H](C)[C@@H](O)[C@]1(C)O [azithromycin]
- clinical response of granulomatous rosacea at follow-up (Example 1, azithromycin reduced to 500 mg every other day plus daily topical azaleic acid): remained clear
- clinical response of granulomatous rosacea (Example 1, oral azithromycin 500 mg daily together with norgestimate/ethinyl estradiol, 9 weeks after initiation): greatly improved with only minimal residual facial erythema and no residual inflammatory lesions
- clinical response of granulomatous rosacea at follow-up (Example 2, azithromycin decreased to 500 mg every other day, topicals continued): no evidence of residual rosacea
- clinical response of granulomatous rosacea (Example 2, oral azithromycin 500 mg daily with topical sodium sulfacetamide 10%/sulfur 5% cream and metronidazole cream, six weeks after initiation): minimally perceptible residual erythema and papulation
- clinical response of granulomatous rosacea (Example 3, azithromycin as sole therapy, orally 250 mg daily for three weeks): remarkable improvement
- recurrence of granulomatous rosacea (Example 3, following cessation of azithromycin therapy (250 mg daily for three weeks)): has not had a recurrence
- efficacy on signs and symptoms of granulomatous rosacea (general statement) (administered systemically for a period of several weeks or more): effective

SMILES: CC1=C(C(=O)O)N2C(=O)[C@@H](NC(=O)[C@H](N)c3ccccc3)[C@H]2SC1 [cephalexin]
- clinical response of facial rash (later diagnosed granulomatous rosacea) (Example 2, patient, oral cephalexin, one month later): worsening pustules and tender nodules

SMILES: Cc1onc(-c2c(Cl)cccc2Cl)c1C(=O)N[C@@H]1C(=O)N2[C@@H]1SC(C)(C)[C@@H]2C(=O)O [dicloxicillin]
- clinical response of facial rash (later diagnosed granulomatous rosacea) (Example 2, dicloxicillin, six weeks later): persistent severe to worsening involvement

From patent US20070105788A1, “Azithromycin for treatment of granulomatous rosacea” (priority 2005, published 2007)
